The source of these data is ChEMBL document CHEMBL5625242, “Discovery of brain permeable 2-Azabicyclo[2.2.2]octane sulfonamides as a novel class of presenilin-1 selective γ-secretase inhibitors” (Eur J Med Chem, 2023).

What all share (type): cell-based
The nature of experiment [1]: Inhibition of human PSEN1/APH1B expressed in MEF cells with Psen1/2 double knockout/Aph1ABC triple knockout by ELISA.
Experiment [2] can be described thus: Inhibition of human PSEN2/APH1A expressed in MEF cells with Psen1/2 double knockout/Aph1ABC triple knockout by ELISA.
Experiment [3] is described as follows: Inhibition of human PSEN2/APH1B expressed in MEF cells with Psen1/2 double knockout/Aph1ABC triple knockout by ELISA.
Experiment [4] is described as follows: Inhibition of human PSEN1/APH1A expressed in MEF cells with Psen1/2 double knockout/Aph1ABC triple knockout by ELISA.

As for `O=S(=O)(c1ccc(Cl)cc1)N1[C@H]2CC[C@H]([C@H](O)C2)[C@H]1c1cc(F)ccc1F` (racemic), the IC50 in experiment [1] was 0.427 µM; in experiment [2], 7.76 µM; in experiment [3] it was 7.76 µM; in experiment [4], 0.851 µM.
As for `O=S(=O)(c1ccc(Cl)cc1)N1[C@H]2CC[C@H]([C@H](O)C2)[C@H]1c1ccccc1Cl` (racemic), the IC50 in experiment [1] was 0.426 µM; in experiment [2] it was more than 10 µM; in experiment [3], more than 10 µM; in experiment [4] it was 2.24 µM.
In the case of `Cc1ccc(S(=O)(=O)N2[C@H]3CC[C@@H]([C@H]2c2ccc(C(F)(F)F)cc2)[C@@H](O)C3)cc1` (racemic), the concentration for half-maximal inhibition (IC50) was 0.05 µM in experiment [1], more than 8 µM in experiment [2], more than 8 µM in experiment [3] and 0.208 µM in experiment [4].
Consider `CC(=O)Nc1ccc([C@@H]2[C@@H]3CC[C@@H](C[C@@H]3O)N2S(=O)(=O)c2ccc(Cl)cc2)cc1` (racemic), for which the IC50 in experiment [1] was 0.0245 µM; in experiment [2], 1.2 µM; in experiment [3], more than 1.3 µM; in experiment [4], 0.135 µM.
Turning to `CC(=O)Nc1ccc([C@@H]2[C@@H]3CC[C@@H](CC3=O)N2S(=O)(=O)c2ccc(Cl)cc2)cc1` (racemic), the IC50 in experiment [1] was 0.709 µM; in experiment [2] it was more than 10 µM; in experiment [3], more than 10 µM; in experiment [4], 6.31 µM.
Take `N#Cc1ccc([C@@H]2[C@@H]3CC[C@@H](C[C@@H]3O)N2S(=O)(=O)c2ccc(Cl)cc2)cc1` (racemic): the IC50 in experiment [1] was determined as 0.012 µM; in experiment [2], 0.758 µM; in experiment [3] it was 0.631 µM; in experiment [4], 0.064 µM.
For `COCC(=O)Nc1ccc([C@@H]2[C@@H]3CC[C@@H](CC3=O)N2S(=O)(=O)c2ccc(Cl)cc2)cc1` (racemic) the same measures were 1.45 µM, more than 10 µM, more than 10 µM and more than 10 µM.
With `O=S(=O)(c1ccc(Cl)s1)N1[C@H]2CC[C@@H]([C@H]1c1ccc(F)c(F)c1)[C@@H](O)C2` (racemic), the IC50 in experiment [1] is 0.074 µM; in experiment [2], more than 10 µM; in experiment [3] it was more than 10 µM; in experiment [4] it was 0.398 µM.
As for `O=S(=O)(c1ccc(Cl)cc1)N1[C@H]2CC[C@H]([C@H](O)C2)[C@H]1c1ccc(C(F)(F)F)nc1` (racemic), the half-maximal inhibitory concentration (IC50) is 0.776 µM in experiment [1], more than 10 µM in experiment [2], more than 10 µM in experiment [3] and 6.46 µM in experiment [4].
With `O=S(=O)(c1ccc(Cl)cc1)N1[C@H]2CC[C@H]([C@H](O)C2)[C@H]1c1ccc(C(F)(F)F)cc1` (racemic), the 50% inhibitory concentration (IC50) in experiment [1] is 0.109 µM; in experiment [2], more than 10 µM; in experiment [3], more than 10 µM; in experiment [4] it was 0.758 µM.
Consider `CC(=O)Nc1ccc([C@@H]2[C@@H]3CC[C@@H](CC3=O)N2S(=O)(=O)c2ccc(Cl)s2)cc1` (racemic), for which the IC50 in experiment [1] was 0.389 µM; in experiment [2], 8.5 µM; in experiment [3], 8 µM; in experiment [4], 3.02 µM.
For the compound `O=S(=O)(c1ccc(Cl)cc1)N1[C@H]2CC[C@@H]([C@H]1c1ccc(Cl)cc1)[C@@H](O)C2` (racemic), the IC50 in experiment [1] is 0.046 µM; in experiment [2], more than 2 µM; in experiment [3], more than 2 µM; in experiment [4] it was 0.147 µM.
As for `O=C1C[C@@H]2CC[C@H]1[C@@H](c1ccc(C(F)(F)F)cc1)N2S(=O)(=O)c1ccc(F)cc1` (racemic), the IC50 is 0.208 µM in experiment [1], more than 10 µM in experiment [2], more than 10 µM in experiment [3] and 1 µM in experiment [4].
Regarding `O=S(=O)(c1ccc(Cl)s1)N1[C@H]2CC[C@@H]([C@H]1c1ccc(Cl)cc1)[C@@H](O)C2` (racemic), the IC50 in experiment [1] was 0.058 µM; in experiment [2] it was more than 2 µM; in experiment [3], more than 2 µM; in experiment [4], 0.199 µM.
Regarding `O=C1C[C@@H]2CC[C@H]1[C@@H](c1ccc(Cl)cc1)N2S(=O)(=O)c1ccc(Cl)s1` (racemic), the IC50 was 0.281 µM in experiment [1], more than 10 µM in experiment [2], more than 10 µM in experiment [3] and 2.24 µM in experiment [4].
As for `CCOC(=O)Nc1ccc([C@@H]2[C@@H]3CC[C@@H](C[C@@H]3O)N2S(=O)(=O)c2ccc(Cl)cc2)cc1` (racemic), the half-inhibitory concentration (IC50) in experiment [1] came to 0.029 µM; in experiment [2] it was 0.288 µM; in experiment [3], 0.912 µM; in experiment [4] it was 0.19 µM.
In the same order, the values of `O=C1C[C@@H]2CC[C@H]1[C@@H](c1ccc(F)c(F)c1)N2S(=O)(=O)c1ccc(Cl)s1` (racemic) are 1.95 µM, more than 10 µM, more than 10 µM and more than 10 µM.
In the same order, the values of `Cc1ccc(S(=O)(=O)N2[C@H]3CC[C@@H]([C@H]2c2ccc(C#N)nc2)[C@@H](O)C3)cc1` (racemic) are 0.158 µM, more than 10 µM, more than 10 µM and 1.1 µM.
In the same order, the values of `N#Cc1ccc([C@@H]2[C@@H]3CC[C@@H](C[C@@H]3O)N2S(=O)(=O)c2ccc(Cl)s2)cn1` (racemic) are 0.039 µM, 3.02 µM, 3.39 µM and 0.147 µM.
Consider `O=C1C[C@@H]2CC[C@H]1[C@@H](c1ccccc1Cl)N2S(=O)(=O)c1ccc(Cl)cc1` (racemic), for which the IC50 is 0.389 µM in experiment [1], more than 10 µM in experiment [2], more than 10 µM in experiment [3] and 2.63 µM in experiment [4].
As to `CCNC(=O)Nc1ccc([C@@H]2[C@@H]3CC[C@@H](CC3=O)N2S(=O)(=O)c2ccc(Cl)cc2)cc1` (racemic), the half-inhibitory concentration (IC50) in experiment [1] was 0.389 µM; in experiment [2], 7 µM; in experiment [3], 8.5 µM; in experiment [4], 3.8 µM.
For `N#Cc1ccc([C@@H]2[C@@H]3CC[C@@H](C[C@H]3O)N2S(=O)(=O)c2ccc(Cl)cc2)cn1` the same measures were more than 10 µM, more than 10 µM, more than 10 µM and more than 10 µM.
In the same order, the values of `O=S(=O)(c1ccc(Cl)cc1)N1[C@H]2CC[C@@H]([C@H]1c1ccccc1)[C@@H](O)C2` (racemic) are 0.014 µM, 0.426 µM, 0.602 µM and 0.102 µM.
For `CCNC(=O)Nc1ccc([C@@H]2[C@@H]3CC[C@@H](C[C@@H]3O)N2S(=O)(=O)c2ccc(Cl)cc2)cc1` (racemic) the same measures were 0.0794 µM, 2.34 µM, 4.79 µM and 0.446 µM.
In the case of `COCC(=O)Nc1ccc([C@@H]2[C@@H]3CC[C@@H](C[C@@H]3O)N2S(=O)(=O)c2ccc(Cl)cc2)cc1` (racemic), the IC50 in experiment [1] turned out to be 0.052 µM; in experiment [2], 1.41 µM; in experiment [3], 2 µM; in experiment [4], 0.208 µM.
Take `O=S(=O)(c1ccc(Cl)cc1)N1[C@H]2CC[C@H]([C@H](O)C2)[C@H]1c1ccc(C(F)(F)F)cc1`: the values for the 50% inhibitory concentration (IC50) in experiment [1] and in experiment [4] were 0.11 µM and 0.759 µM, respectively.
